Measured values: the NIST ThermoML archive (doi:10.1016/j.jct.2007.07.005)
Numbers after ± are expanded uncertainties.

Test: xn = mol fraction of the nth substance listed
Settings: Fluid (supercritical or subcritical phases), vibrating tube

CCCCCO [pentan-1-ol] + O=C=O
Settings | mass density [kg/m3]
323.05 K, 13025 kPa, x2 = 0.0816 | 806.04 ± 0.44
323.05 K, 13028 kPa, x2 = 0.8067 | 814.77 ± 0.49
323.05 K, 14019 kPa, x2 = 0.3624 | 822.92 ± 0.44
323.05 K, 14021 kPa, x2 = 0.0816 | 806.82 ± 0.44
323.05 K, 14024 kPa, x2 = 0.8067 | 820.63 ± 0.48
323.05 K, 14024 kPa, x2 = 0.9757 | 722.69 ± 0.76
323.05 K, 14031 kPa, x2 = 0.4651 | 829.31 ± 0.45
323.05 K, 14965 kPa, x2 = 0.9757 | 740.5 ± 0.69
323.05 K, 14990 kPa, x2 = 0.4651 | 830.68 ± 0.45
323.05 K, 15001 kPa, x2 = 0.8067 | 825.93 ± 0.48
323.05 K, 15006 kPa, x2 = 0.3624 | 823.89 ± 0.45
323.05 K, 15017 kPa, x2 = 0.0816 | 807.57 ± 0.44
323.05 K, 16002 kPa, x2 = 0.3624 | 824.89 ± 0.45
323.05 K, 16018 kPa, x2 = 0.9757 | 757.4 ± 0.65
323.05 K, 16021 kPa, x2 = 0.0816 | 808.32 ± 0.45
323.05 K, 16027 kPa, x2 = 0.4651 | 832.14 ± 0.45
323.05 K, 16066 kPa, x2 = 0.8067 | 831.24 ± 0.48
323.05 K, 17005 kPa, x2 = 0.0816 | 809.07 ± 0.45
323.05 K, 17018 kPa, x2 = 0.4651 | 833.51 ± 0.45
323.05 K, 17021 kPa, x2 = 0.3624 | 825.87 ± 0.45
323.05 K, 17021 kPa, x2 = 0.8067 | 835.7 ± 0.48
323.05 K, 17052 kPa, x2 = 0.9757 | 771.8 ± 0.62
323.05 K, 17994 kPa, x2 = 0.4651 | 834.85 ± 0.45
323.05 K, 18001 kPa, x2 = 0.3624 | 826.81 ± 0.45
323.05 K, 18002 kPa, x2 = 0.8067 | 840 ± 0.47
323.05 K, 18028 kPa, x2 = 0.9757 | 783.78 ± 0.59
323.05 K, 18049 kPa, x2 = 0.0816 | 809.83 ± 0.45
323.05 K, 18975 kPa, x2 = 0.0816 | 810.52 ± 0.45
323.05 K, 19012 kPa, x2 = 0.8067 | 844.21 ± 0.47
323.05 K, 19034 kPa, x2 = 0.3624 | 827.81 ± 0.45
323.05 K, 19035 kPa, x2 = 0.9757 | 794.96 ± 0.58
323.05 K, 19057 kPa, x2 = 0.4651 | 836.29 ± 0.45
323.05 K, 19998 kPa, x2 = 0.3624 | 828.72 ± 0.45
323.05 K, 20002 kPa, x2 = 0.9757 | 804.8 ± 0.56
323.05 K, 20009 kPa, x2 = 0.4651 | 837.54 ± 0.45
323.05 K, 20044 kPa, x2 = 0.8067 | 848.26 ± 0.47
323.05 K, 20047 kPa, x2 = 0.0816 | 811.3 ± 0.45
323.05 K, 20997 kPa, x2 = 0.0816 | 811.98 ± 0.45
323.05 K, 21033 kPa, x2 = 0.3624 | 829.67 ± 0.45
323.05 K, 21034 kPa, x2 = 0.4651 | 838.89 ± 0.45
323.05 K, 21046 kPa, x2 = 0.8067 | 851.97 ± 0.47
323.05 K, 21049 kPa, x2 = 0.9757 | 814.6 ± 0.55
323.05 K, 21991 kPa, x2 = 0.0816 | 812.7 ± 0.45
323.05 K, 22013 kPa, x2 = 0.3624 | 830.58 ± 0.45
323.05 K, 22017 kPa, x2 = 0.4651 | 840.19 ± 0.45
323.05 K, 22017 kPa, x2 = 0.8067 | 855.5 ± 0.47
323.05 K, 22020 kPa, x2 = 0.9757 | 823 ± 0.54
323.05 K, 22767 kPa, x2 = 0.9757 | 829.12 ± 0.54
323.05 K, 22970 kPa, x2 = 0.8067 | 858.77 ± 0.47
323.05 K, 22997 kPa, x2 = 0.3624 | 831.49 ± 0.45
323.05 K, 23022 kPa, x2 = 0.4651 | 841.47 ± 0.45
323.05 K, 23054 kPa, x2 = 0.0816 | 813.46 ± 0.45
323.05 K, 23901 kPa, x2 = 0.4651 | 842.61 ± 0.45
323.05 K, 23987 kPa, x2 = 0.0816 | 814.12 ± 0.45
323.05 K, 24062 kPa, x2 = 0.3624 | 832.47 ± 0.45
323.05 K, 24707 kPa, x2 = 0.3624 | 833.04 ± 0.45
323.05 K, 25014 kPa, x2 = 0.0816 | 814.87 ± 0.45
323.06 K, 11010 kPa, x2 = 0.8573 | 775.4 ± 0.58
323.06 K, 11028 kPa, x2 = 0.9216 | 732.55 ± 1
323.06 K, 12011 kPa, x2 = 0.9216 | 751.44 ± 0.68
323.06 K, 12019 kPa, x2 = 0.8573 | 787.14 ± 0.54
323.06 K, 13011 kPa, x2 = 0.8573 | 796.54 ± 0.52
323.06 K, 13032 kPa, x2 = 0.9216 | 766.64 ± 0.61
323.06 K, 14000 kPa, x2 = 0.8573 | 804.66 ± 0.51
323.06 K, 14011 kPa, x2 = 0.9216 | 778.82 ± 0.58
323.06 K, 15019 kPa, x2 = 0.8573 | 812.19 ± 0.5
323.06 K, 15028 kPa, x2 = 0.9216 | 789.81 ± 0.56
323.06 K, 15995 kPa, x2 = 0.9216 | 799.06 ± 0.54
323.06 K, 16044 kPa, x2 = 0.8573 | 819.03 ± 0.49
323.06 K, 17005 kPa, x2 = 0.8573 | 824.92 ± 0.49
323.06 K, 17047 kPa, x2 = 0.9216 | 808.18 ± 0.53
323.06 K, 18002 kPa, x2 = 0.9216 | 815.71 ± 0.52
323.06 K, 18049 kPa, x2 = 0.8573 | 830.83 ± 0.49
323.06 K, 19010 kPa, x2 = 0.8573 | 835.97 ± 0.48
323.06 K, 19033 kPa, x2 = 0.9216 | 823.28 ± 0.51
323.06 K, 19996 kPa, x2 = 0.9216 | 829.83 ± 0.51
323.06 K, 20006 kPa, x2 = 0.8573 | 840.95 ± 0.48
323.06 K, 20987 kPa, x2 = 0.8573 | 845.64 ± 0.48
323.06 K, 21053 kPa, x2 = 0.9216 | 836.6 ± 0.5
323.06 K, 21758 kPa, x2 = 0.9216 | 840.85 ± 0.49
323.06 K, 22019 kPa, x2 = 0.8573 | 850.27 ± 0.48
323.06 K, 23021 kPa, x2 = 0.8573 | 854.64 ± 0.48
323.06 K, 24075 kPa, x2 = 0.8573 | 858.97 ± 0.48
323.08 K, 11058 kPa, x2 = 0.7274 | 819.26 ± 0.49
323.08 K, 12031 kPa, x2 = 0.7274 | 823.11 ± 0.46
323.08 K, 13034 kPa, x2 = 0.7274 | 826.85 ± 0.46
323.08 K, 14040 kPa, x2 = 0.7274 | 830.38 ± 0.46
323.08 K, 15010 kPa, x2 = 0.7274 | 833.59 ± 0.46
323.08 K, 16026 kPa, x2 = 0.7274 | 836.83 ± 0.46
323.08 K, 17015 kPa, x2 = 0.7274 | 839.83 ± 0.46
323.08 K, 17987 kPa, x2 = 0.7274 | 842.68 ± 0.46
323.08 K, 19054 kPa, x2 = 0.7274 | 845.68 ± 0.46
323.08 K, 19981 kPa, x2 = 0.7274 | 848.2 ± 0.46
323.08 K, 21008 kPa, x2 = 0.7274 | 850.93 ± 0.46
323.08 K, 22014 kPa, x2 = 0.7274 | 853.5 ± 0.46
323.08 K, 23019 kPa, x2 = 0.7274 | 855.98 ± 0.46
323.08 K, 23836 kPa, x2 = 0.7274 | 857.96 ± 0.46
323.11 K, 6015 kPa, x2 = 0.1347 | 801.54 ± 0.44
323.11 K, 7002 kPa, x2 = 0.1347 | 802.41 ± 0.44
323.11 K, 8020 kPa, x2 = 0.1347 | 803.27 ± 0.44
323.11 K, 9002 kPa, x2 = 0.1347 | 804.12 ± 0.44
323.11 K, 9115 kPa, x2 = 0.6054 | 824.57 ± 0.45
323.11 K, 10017 kPa, x2 = 0.1347 | 804.97 ± 0.44
323.11 K, 10057 kPa, x2 = 0.6054 | 826.64 ± 0.46
323.11 K, 11055 kPa, x2 = 0.1347 | 805.83 ± 0.44
323.11 K, 11062 kPa, x2 = 0.6054 | 828.82 ± 0.45
323.11 K, 12029 kPa, x2 = 0.1347 | 806.64 ± 0.44
323.11 K, 12049 kPa, x2 = 0.6054 | 830.92 ± 0.45
323.11 K, 13031 kPa, x2 = 0.1347 | 807.47 ± 0.44
323.11 K, 13068 kPa, x2 = 0.6054 | 833.05 ± 0.45
323.11 K, 14038 kPa, x2 = 0.1347 | 808.26 ± 0.44
323.11 K, 14062 kPa, x2 = 0.6054 | 835.02 ± 0.45
323.11 K, 15022 kPa, x2 = 0.1347 | 809.05 ± 0.44
323.11 K, 15036 kPa, x2 = 0.6054 | 836.96 ± 0.45
323.11 K, 16015 kPa, x2 = 0.1347 | 809.84 ± 0.45
323.11 K, 16032 kPa, x2 = 0.6054 | 838.86 ± 0.45
323.11 K, 17022 kPa, x2 = 0.1347 | 810.64 ± 0.45
323.11 K, 17053 kPa, x2 = 0.6054 | 840.77 ± 0.45
323.11 K, 18041 kPa, x2 = 0.1347 | 811.39 ± 0.45
323.11 K, 18069 kPa, x2 = 0.6054 | 842.62 ± 0.45
323.11 K, 19010 kPa, x2 = 0.1347 | 812.15 ± 0.45
323.11 K, 19041 kPa, x2 = 0.6054 | 844.36 ± 0.45
323.11 K, 20025 kPa, x2 = 0.1347 | 812.91 ± 0.45
323.11 K, 20032 kPa, x2 = 0.6054 | 846.09 ± 0.45
